Values of other authors in patent US8993316B2, “Methods and compositions for gene therapy and GHRH therapy” (priority 2011, dated 2015).

Legend:
[1] = not given; remark: listed apart in the source

Molecule	half-life after injection	rough half-life ([1]; in vivo)	therapeutic effect duration ([1]; long acting)
GHRH: growth hormone releasing hormone, a peptide hormone	roughly 8 minutes	–	–
COc1cc(CC(C)N)c(OC)cc1I (stereo not drawn) [DOI, 2,5-dimethoxy-4-iodoamphetamine]	–	12 to 15 h	≥ 30 h
